The results in this text go back to patent publication US20240240226A1, “FLUOROGENIC ASSAY FOR RAPID SCREENING OF BACTERIAL BETA-LACTAMASE ACTIVITY” (The Board of Trustees of the Leland Stanford Junior …, priority 2021, published 2024).

The subject of assay [1] is esterase. Nature of the assay: Response of CDA to H2O2 with esterases alone. It is filed as biochemical.
Assay [2] concerns E. coli/TEM-1. Nature of the assay: CDA detection of live E. coli expressing TEM-1 Bla. The class given is cell-based. As to the method: FIG. 3 illustrates the characterization of CDA with HRP, H2O2, E. coli expressing TEM-1 Bla (E. coli/TEM-1) and IMP-1 carbapenemase (E. coli/IMP-1), and K. pneumoniae expressing KPC carbapenemase (K. pneumoniae/KPC). a) Fluorescence enhancement of CDA incubated with different concentrations of E. coli expressing TEM-1 Bla. b) Fluorescence enhancement of CDA; HRP (1 unit/mL), H2O2 (1 μM), and either viable E. coli expressing TEM-1 Bla or bacterial lysate extracted from equal c.f.u. per milliliter. c) Fluorescence enhancement of CDA incubated with different concentrations of E. coli expressing TEM-1 Bla (H2O2, 1 mM). d) Fluorescent intensity of E. coli and E. coli/TEM-1 preincubated with CDA for 20 hours upon addition of H2O2 (500 μM) for 5 min. Error bars represent ±SD, n=3. * p<0.0332; **p<0.0021, ****p<0.0001, ns: not significant. e) Fluorescence enhancement of CDA incubated with different concentrations of E. coli expressing IMP-1 carbapenemase in the presence of H2O2 (1 mM). f) Fluorescence enhancement of CDA incubated with different concentrations of K. pneumoniae expressing KPC carbapenemase (H2O2, 1 mM). […] Data were collected on a Tecan Safire microplate reader with excitation at 570 nm and emission at 600 nm. […]
It was studied if CDA could report β-lactamase activity in live E. coli and Klebsiella pneumoniae (K. pneumoniae) which are commonly found in many infections. Three transformed E. coli strains expressing the most clinically prevalent β-lactamases including TEM-1 Bla (E. coli/TEM-1) and two carbapenemases were evaluated: a metallo-β-lactamase IMP-1 (E. coli/IMP-1) and a unique class A β-lactamase KPC-3 (E. coli/KPC-3) that hydrolyze carbapenem antibiotics. […]
To address the question of whether a higher concentration of H2O2 would equilibrate across membranes of viable bacteria and accelerate the oxidation of processed CDA, a serial dilution of H2O2 (100 μM, 500 μM, 1 mM, 2 mM) was incubated with CDA and different concentrations of E. coli and E. coli/TEM-1 for a longitudinal reading (FIGS. 3c, 21b, and 22). […]

As to `CC(=O)Oc1ccc2c(c1)Oc1cc(OC(C)=O)ccc1N2C(=O)OCc1ccc(SCC2=C(C(=O)O)N3C(=O)[C@@H](NC(=O)Cc4ccccc4)[C@H]3SC2)cc1` [CDA, 3-(((4-(((3,7-diacetoxy-10H-phenoxazine-10-carbonyl)oxy)methyl)phenyl)thio)methyl)-8-oxo-7-(2-phenylacetamido)-5-thia-1-azabicyclo[4.2.0]oct-2-ene-2-carboxylic acid], the “change of the response of CDA to H2O2” value in assay [1] is recorded as “barely changed”. Besides, the “effect of adding HRP and H2O2 on fluorescence with viable bacteria” value in assay [2] (HRP 1 unit/mL, H2O2 1 μM, bacteria not lysed) is “contributed little to the fluorescence increase”. Further, the “number of bacteria detectable in one 96 well” value in assay [2] (factoring the 100 μL assay volume) stood at 100 bacteria. The bacteria concentration detectable in assay [2] (noninduced E. coli/TEM-1, H2O2 1 mM, within 2-3 hours) is 10^6-10^7 c.f.u./mL.
